Source: US6040149A, “Assay for identifying agents which act on the ceramide-activated protein kinase, kinase suppressor of ras, and methods of using said agents” (priority 1997, dated 2000)

What was measured:
[1] = system: EL-4 cells; test: Sphingomyelin and ceramide levels in intact EL-4 cells; assay type: cell-based, murine; conditions: maximally effective concentrations (n=5)
Description: IL-1β effects on sphingomyelin levels in EL4 cells. Time course (A) and dose response (B). Cells were grown to growth arrest (1-1.5×10^6 cells ml^-1) in DME/Ham's F12 medium (1:1, v/v) containing 10% horse serum and for 48 hours [^3 H]choline (1 μCi ml^-1). On the day of an experiment, cells were resuspended back into the same medium at 10×10^6 cells ml^-1 and stimulated with 40 ng ml^-1 IL-1β for the indicated times (A) or for 30 minutes with increasing concentrations of IL-1β (B). Human IL-1β may be obtained using methods well known to those skilled in the art. Reactions were terminated with CHCl3 :CH3 OH:HCl (100:100:1) containing 10 mM EDTA (82). Lipids in the organic phase extract were dried under N2 and subjected to mild alkaline hydrolysis (0.1 M methanolic KOH for 1 hour at 37° C.) to remove glycerophospholipids. Sphingomyelin was resolved by thin-layer chromatography (TLC) using CHCl3 :CH3 OH:CH3 COOH:H2 O (60:30:8:5) as solvent, identified by iodine vapor staining, and quantified by liquid scintillation spectrometry. As previously reported, the use of [^3 H]choline as a measure of sphingomyelin content was validated by simultaneous phospholipid phosphorus measurements. Each value represents the mean±SEM of triplicate determinations from four experiments in (A), and one representative of four similar studies performed in triplicate in (B).
Effect of IL-1β on ceramide levels in EL-4 cells. Cells were stimulated as in FIG. 12 with IL-1β (40 ng ml^-1) and ceramide contained within the organic phase extract quantified enzymatically using the E. coli diacylglycerol kinase reaction. Lipids were resolved by TLC using CHCl3 :CH3 OH:CH3 COOH (65/15/5) as solvent, autoradiographed and quantified by liquid scintillation spectrometry. Each value represents the mean±SEM of triplicate determinations from 10 experiments.
The murine thymoma EL-4 cell line is a well-defined IL-1 responsive cell line that expresses functional IL-1 receptors. Upon stimulation with IL-1, these cells up-regulate the IL-2 receptor and secrete IL-2 [62]. Initial studies were designed to investigate the effects of IL-1β on cellular sphingomyelin content. Cells, grown in Dulbecco's Modified Eagle's (DME)/Ham's F-12 medium containing 10% horse serum and [^3 H]choline (1 μCi ml^-1), were resuspended back into the same medium at 10×10^6 cells ml^-1 and stimulated with IL-1β. IL-1β is commercially available.

[2] = biological target: T1, KSR (Mus musculus, UniProt Q61097); test: Phosphorylation and activation of recombinant Raf-1 by KSR immunoprecipitated from treated COS-7 cells; assay type: cell-based, mouse (KSR expressed in COS-7 cells); conditions: C2-ceramide 1 μM; TNFα 10 nM
T1 sequence (Q61097 1-873): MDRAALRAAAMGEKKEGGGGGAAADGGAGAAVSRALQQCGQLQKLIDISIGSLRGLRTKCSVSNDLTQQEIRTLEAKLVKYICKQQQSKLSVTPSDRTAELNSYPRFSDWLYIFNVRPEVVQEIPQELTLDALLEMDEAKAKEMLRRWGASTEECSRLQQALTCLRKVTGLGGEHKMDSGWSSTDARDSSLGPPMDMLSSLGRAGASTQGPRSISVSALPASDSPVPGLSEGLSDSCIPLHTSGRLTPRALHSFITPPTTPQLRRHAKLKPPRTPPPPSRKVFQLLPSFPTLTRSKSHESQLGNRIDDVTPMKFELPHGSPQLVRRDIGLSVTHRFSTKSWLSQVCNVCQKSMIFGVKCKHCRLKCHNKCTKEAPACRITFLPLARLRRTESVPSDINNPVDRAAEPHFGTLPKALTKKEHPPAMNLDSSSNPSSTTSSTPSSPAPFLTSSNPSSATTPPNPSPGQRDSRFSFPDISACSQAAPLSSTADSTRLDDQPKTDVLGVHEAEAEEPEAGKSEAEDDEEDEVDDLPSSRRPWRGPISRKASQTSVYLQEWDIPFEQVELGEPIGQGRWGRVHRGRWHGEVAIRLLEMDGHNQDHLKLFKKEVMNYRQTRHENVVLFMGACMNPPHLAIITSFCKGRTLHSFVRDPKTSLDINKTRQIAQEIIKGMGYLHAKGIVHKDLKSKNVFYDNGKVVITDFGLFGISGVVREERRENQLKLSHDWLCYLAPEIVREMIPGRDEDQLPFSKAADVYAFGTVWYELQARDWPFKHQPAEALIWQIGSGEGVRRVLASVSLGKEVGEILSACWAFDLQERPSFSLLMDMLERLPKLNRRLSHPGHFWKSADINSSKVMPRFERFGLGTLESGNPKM
Description: FIGS. 23B-23C--COS-7 cells expressing Flag-tagged KSR were stimulated with 1 μM C2-ceramide for 10 min and lysed with NP-40 buffer as in FIG. 23A. […] The autoradiogram was exposed for 1 hour. Data represent one of three experiments.
COS-7 cells expressing Flag-tagged KSR were stimulated with 10 nM TNFα for the times indicated and lysed with NP-40 buffer as in FIG. 2A. […] The autoradiogram was exposed for 1 hour. Data represent one of three similar experiments.
Immunoprecipitated KSR was incubated with reaction buffer A containing 0.5 mM ATP and a protein kinase inhibitor cocktail [20 μM PKC inhibitor peptide (UBI), 2 μM protein kinase A inhibitor peptide (UBI) and 20 μM R24571 (Sigma)] for 30 min at 22° C.

Row | Molecule | ceramide response [1] | activity of immunoprecipitated KSR to phosphorylate and activate Raf-1 [2]
1 | CCCCCCCCCCCCCC(=O)O[C@@H]1[C@@H](C)[C@@]2(O)[C@@H](C=C(CO)C[C@]3(O)C(=O)C(C)=C[C@@H]23)[C@@H]2C(C)(C)[C@]12OC(C)=O [TPA, 12-0-tetradecanoylphorbol-13-acetate] | failed to elicit a ceramide response | –
2 | TNF-α | – | stimulated dramatically
